The values that follow are results of earlier work, collected in US8415392B2, “Combined use of L-carnitine, acetyle L-carnitine and propionyl L-carnitine for the treatment of oligoasthenoteratospermia” (Sigma-Tau Industrie Farmaceutiche Riunite, S.p.A., priority 2002, dated 2013).

The structures appear in SMILES notation.

For series [1], the system named is patients with idiopathic asthenospermia. The settings on record: L-carnitine administration.
Series [2] concerns patients with idiopathic oligoastheno-spermia. The settings on record: acetyl L-carnitine.
Setting [3] is: Fertilität 4.1-4, 1988, L-carnitine therapy.

Consider `C[N+](C)(C)C[C@H](O)CC(=O)[O-]` [L-carnitine], for which the sperm motility result in the series with infertile patients (Andrologia 26:155-159, 1994, quantitative and qualitative) is “significant improvement”. In addition, in the series on infertile patients (setting [3]), the “carnitine levels in the spermatozoa” value is listed as “increase”; the “sperm motility and sperm count” value is recorded as “increase”. Moreover, the sperm quality result with infertile patients (Loumbakis et al. 1996, preliminary data) was “may have a positive effect”. For the same molecule, the “patients in whom sperm motility improved and sperm count increased” value in series [1] is reported as 37 out of 47.
In the case of `CC(=O)O[C@H](CC(=O)[O-])C[N+](C)(C)C` [acetyl L-carnitine], in series [2], the sperm density result is “no effect” and the sperm motility result is “progressive increase”.
